Some results are limits rather than exact numbers.

In the first test the target is T1, human recombinant 15-PGDH (Homo sapiens, UniProt P15428).
T1 sequence (P15428 1-266): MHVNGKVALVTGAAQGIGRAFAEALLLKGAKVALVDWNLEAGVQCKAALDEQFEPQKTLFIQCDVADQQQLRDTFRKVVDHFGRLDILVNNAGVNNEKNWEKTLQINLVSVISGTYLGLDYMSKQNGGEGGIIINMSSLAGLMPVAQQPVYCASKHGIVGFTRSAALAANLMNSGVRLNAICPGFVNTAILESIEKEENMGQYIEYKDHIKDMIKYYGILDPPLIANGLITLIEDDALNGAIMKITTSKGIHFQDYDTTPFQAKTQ
The test is described as follows: Inhibition of recombinant 15-PGDH enzymatic activity (NADH quantification after addition of PGE2 and NAD+). Format: biochemical.
Conditions: not given
As to the method:
The compound dose-response of its inhibition of 15-PGDH activity was determined in human recombinant 15-PGDH enzymatical assays. These assays measured 15-PGDH enzymatic activity by quantifying the amount of NADH produced during a 60-minute reaction initiated by the addition of PGE2 and NAD+. Under the conditions of these experiments, the increase of NADH signal upon oxidation of PGE2 and reduction of NAD+ was linearly proportional to 15-PGDH enzymatic activity. The recombinant human, mouse, rat and dog 15-PGDH enzymatic assays were performed in a 25 μL volume of reaction buffer containing 50 mM Tris, pH 7.5, 0.01% Tween-20 and 100 μM DTT in a 384-well microtiter plate. In concentration-response experiments with tested compounds, 22 concentrations from 2-fold serial dilutions in DMSO were pre-incubated with 15-PGDH for 15 minutes at room temperature. Then, PGE2 and ß-NAD+ were added to initiate the 15-PGDH reaction. After 60 minutes at room temperature, the reaction was quenched and NADH signal was measured using a microtiter plate reader.
The following data (Table 11-1) provides the IC50 of each compound for inhibiting enzymatic activity of recombinant 15-PGDH in the assay described above.
What is called IC50 is the midpoint of a concentration-inhibition curve. On to `Cn1cc2cc(-c3cc(C4CCC4)c4c(N)c(C(=O)N5CCC(F)(F)CC5)sc4n3)cnc2n1` [Compound B4, (3-amino-4-cyclobutyl-6-(2-methyl-2H-pyrazolo[3,4-b]pyridin-5-yl)thieno[2,3-b]pyridin-2-yl)(4,4-difluoro-1-piperidinyl)methanone], for which the half-maximal inhibitory concentration (IC50) stood at 0.387 nM.

The same test, now with this note: recombinant 15-PGDH; 15 min pre-incubation, 60-minute reaction, room temperature, pH 7.5; PGE2 and NAD+; read-out: PGDH-Lumi IC50.
As to `C[C@@H]1COCCN1C(=O)c1cc2c(C3CC3)cc(-c3cnc4nn(C)cc4c3)nc2s1` (single isomer, unassigned) [Compound B17R], the IC50 worked out at 3.11 nM.

Consider `CC1CC(F)(F)CCN1C(=O)c1cc2ccc(-c3cnc4nn(C)cc4c3)nc2s1` (single isomer, unassigned) [Compound B27R], for which the IC50 was 1.51 nM.

As to `C[C@H]1CC(F)(F)CCN1C(=O)c1cc2ccc(-c3cnc4nn(C)cc4c3)nc2s1` (single isomer, unassigned) [Compound B27S], the half-maximal inhibitory concentration (IC50) is 1.24 nM. Same read-out and setting: next, `Cn1cc2cc(-c3ccc4cc(C(=O)N5C[C@H]6CC[C@@H]5CO6)sc4n3)cnc2n1` (stereo in doubt) [Compound B52, (6-(2-methyl-2H-pyrazolo[3,4-b]pyridin-5-yl)thieno[2,3-b]pyridin-2-yl)(2-oxa-5-azabicyclo[2.2.2]octan-5-yl)methanone]: 1.75 nM; `Cc1c(C(=O)N2CCOC[C@H]2C)sc2cc(-c3cnc4nn(C)cc4c3)ccc12` [Compound A1R, (3-methyl-6-(2-methyl-2H-pyrazolo[3,4-b]pyridin-5-yl)-1-benzothiophen-2-yl)((3R)-3-methyl-4-morpholinyl)methanone]: 273 nM; `Cc1c(C(=O)N2CCOC[C@@H]2C)sc2cc(-c3cnc4nn(C)cc4c3)ccc12` [Compound A1S, (3-methyl-6-(2-methyl-2H-pyrazolo[3,4-b]pyridin-5-yl)-1-benzothiophen-2-yl)((3S)-3-methyl-4-morpholinyl)methanone]: 217 nM. Still for that read-out and setting: next, `Cc1c(C(=O)N2CCOCC2)sc2cc(-c3cnc4nn(C)cc4c3)ccc12` [Compound A2, (3-methyl-6-(2-methyl-2H-pyrazolo[3,4-b]pyridin-5-yl)-1-benzothiophen-2-yl)(4-morpholinyl)methanone]: 163 nM. On the same count and under the same terms, in the case of `Cc1c(C(=O)N2CCC(F)(F)CC2)sc2cc(-c3cnc4nn(C)cc4c3)ccc12` [Compound A3, (4,4-difluoro-1-piperidinyl)(3-methyl-6-(2-methyl-2H-pyrazolo[3,4-b]pyridin-5-yl)-1-benzothiophen-2-yl)methanone] it was 11.7 nM. Take `CO[C@@H]1CCN(C(=O)c2sc3cc(-c4cnc5nn(C)cc5c4)ccc3c2C)C1` [Compound A4R, ((3R)-3-methoxy-1-pyrrolidinyl)(3-methyl-6-(2-methyl-2H-pyrazolo[3,4-b]pyridin-5-yl)-1-benzothiophen-2-yl)methanone]: the 50% inhibitory concentration (IC50) stood at 225 nM. Still for that read-out and setting: in the case of `CO[C@H]1CCN(C(=O)c2sc3cc(-c4cnc5nn(C)cc5c4)ccc3c2C)C1` [Compound A4S, ((3S)-3-methoxy-1-pyrrolidinyl)(3-methyl-6-(2-methyl-2H-pyrazolo[3,4-b]pyridin-5-yl)-1-benzothiophen-2-yl)methanone] it was 19.5 nM; in that of `COCCN(C)C(=O)c1sc2cc(-c3cnc4nn(C)cc4c3)ccc2c1C` [Compound A5, N-(2-methoxyethyl)-N,3-dimethyl-6-(2-methyl-2H-pyrazolo[3,4-b]pyridin-5-yl)-1-benzothiophene-2-carboxamide], 87.8 nM. Same read-out and setting: in the case of `Cc1c(C(=O)N2CCOC(C)(C)C2)sc2cc(-c3cnc4nn(C)cc4c3)ccc12` [Compound A6, (2,2-dimethyl-4-morpholinyl)(3-methyl-6-(2-methyl-2H-pyrazolo[3,4-b]pyridin-5-yl)-1-benzothiophen-2-yl)methanone] it was 185 nM.

For the compound `CO[C@@H]1CCCN(C(=O)c2sc3cc(-c4cnc5nn(C)cc5c4)ccc3c2C)C1` [Compound A7R, ((3R)-3-methoxy-1-piperidinyl)(3-methyl-6-(2-methyl-2H-pyrazolo[3,4-b]pyridin-5-yl)-1-benzothiophen-2-yl)methanone], the IC50 amounted to 49.5 nM. Same read-out and setting: next, `CO[C@H]1CCCN(C(=O)c2sc3cc(-c4cnc5nn(C)cc5c4)ccc3c2C)C1` [Compound A7S, ((3S)-3-methoxy-1-piperidinyl)(3-methyl-6-(2-methyl-2H-pyrazolo[3,4-b]pyridin-5-yl)-1-benzothiophen-2-yl)methanone]: 66.4 nM; `Cc1c(C(=O)N2CCOCC2)sc2cc(-c3cncnc3)ccc12` [Compound A8, (3-methyl-6-(5-pyrimidinyl)-1-benzothiophen-2-yl)(4-morpholinyl)methanone]: 4500 nM; `Cc1c(C(=O)N2CCOCC2)sc2cc(-c3ccc(=O)n(C)c3)ccc12` [Compound A9, 1-methyl-5-(3-methyl-2-(4-morpholinylcarbonyl)-1-benzothiophen-6-yl)-2(1H)-pyridinone]: 4960 nM. On the same count and under the same terms, in the case of `Cc1c(C(=O)N2CCOCC2)sc2cc(-c3cnc(NCCO)nc3)ccc12` [Compound A10] it was 1610 nM.

On to `Cc1c(C(=O)N2CCOCC2)sc2cc(-c3ccc4nn(C)cc4c3)ccc12` [Compound A11, (3-methyl-6-(2-methyl-2H-indazol-5-yl)-1-benzothiophen-2-yl)(4-morpholinyl)methanone], for which the IC50 is 851 nM. In the case of `Cn1cc2cc(-c3cc(C4CCC4)c4c(N)c(C(=O)N5CCOCC5)sc4n3)cnc2n1` [Compound B3, (3-amino-4-cyclobutyl-6-(2-methyl-2H-pyrazolo[3,4-b]pyridin-5-yl)thieno[2,3-b]pyridin-2-yl)(4-morpholinyl)methanone], the IC50 came out at 0.711 nM. Still for that read-out and setting: next, `Cn1cc2cc(-c3cc(C4CCC4)c4c(N)c(C(=O)N5CCCCC5)sc4n3)cnc2n1` [Compound B5, (3-amino-4-cyclobutyl-6-(2-methyl-2H-pyrazolo[3,4-b]pyridin-5-yl)thieno[2,3-b]pyridin-2-yl)(1-piperidinyl)methanone]: 0.255 nM; `C[C@@H]1COCCN1C(=O)c1sc2nc(-c3cnc4nn(C)cc4c3)cc(C3CCC3)c2c1N` [Compound B6R, (3-amino-4-cyclobutyl-6-(2-methyl-2H-pyrazolo[3,4-b]pyridin-5-yl)thieno[2,3-b]pyridin-2-yl)((3R)-3-methyl-4-morpholinyl)methanone]: 0.816 nM; `C[C@H]1COCCN1C(=O)c1sc2nc(-c3cnc4nn(C)cc4c3)cc(C3CCC3)c2c1N` [Compound B6S, (3-amino-4-cyclobutyl-6-(2-methyl-2H-pyrazolo[3,4-b]pyridin-5-yl)thieno[2,3-b]pyridin-2-yl)((3S)-3-methyl-4-morpholinyl)methanone]: 0.554 nM. On the same count and under the same terms, next, `CC(C)c1cc[n+]([O-])c2sc(C(=O)N3CCCCC3)cc12` [Compound B7, (7-oxido-4-(2-propanyl)thieno[2,3-b]pyridin-2-yl)(1-piperidinyl)methanone]: over 100000 nM; `Cn1cc2cc(-c3ccc4cc(C(=O)N5CCOCC5)sc4n3)cnc2n1` [Compound B8, (6-(2-methyl-2H-pyrazolo[3,4-b]pyridin-5-yl)thieno[2,3-b]pyridin-2-yl)(4-morpholinyl)methanone]: 5.55 nM; `C[C@@H]1COCCN1C(=O)c1cc2ccc(-c3cnc4nn(C)cc4c3)nc2s1` [Compound B9R, ((3R)-3-methyl-4-morpholinyl)(6-(2-methyl-2H-pyrazolo[3,4-b]pyridin-5-yl)thieno[2,3-b]pyridin-2-yl)methanone]: 6.39 nM. For `C[C@H]1COCCN1C(=O)c1cc2ccc(-c3cnc4nn(C)cc4c3)nc2s1` [Compound B9S, ((3S)-3-methyl-4-morpholinyl)(6-(2-methyl-2H-pyrazolo[3,4-b]pyridin-5-yl)thieno[2,3-b]pyridin-2-yl)methanone], the IC50 came out at 5.05 nM. Still for that read-out and setting: next, `Cn1cc2cc(-c3cc(C4CC4)c4cc(C(=O)N5CCOCC5)sc4n3)cnc2n1` [Compound B10, (4-cyclopropyl-6-(2-methyl-2H-pyrazolo[3,4-b]pyridin-5-yl)thieno[2,3-b]pyridin-2-yl)(4-morpholinyl)methanone]: 0.917 nM; `Cn1cc2cc(-c3cc(C4CC4)c4cc(C(=O)N5CCCC(F)(F)C5)sc4n3)cnc2n1` [Compound B11, (4-cyclopropyl-6-(2-methyl-2H-pyrazolo[3,4-b]pyridin-5-yl)thieno[2,3-b]pyridin-2-yl)(3,3-difluoro-1-piperidinyl)methanone]: 0.317 nM.

Consider `COCCN(C)C(=O)c1cc2c(C3CC3)cc(-c3cnc4nn(C)cc4c3)nc2s1` [Compound B12, 4-cyclopropyl-N-(2-methoxyethyl)-N-methyl-6-(2-methyl-2H-pyrazolo[3,4-b]pyridin-5-yl)thieno[2,3-b]pyridine-2-carboxamide], for which the IC50 turned out to be 0.704 nM. On the same count and under the same terms, next, `Cn1cc2cc(-c3cc(-c4ccnn4C)c4cc(C(=O)N5CCOCC5)sc4n3)cnc2n1` [Compound B13, (6-(2-methyl-2H-pyrazolo[3,4-b]pyridin-5-yl)-4-(1-methyl-1H-pyrazol-5-yl)thieno[2,3-b]pyridin-2-yl)(4-morpholinyl)methanone]: 1.26 nM.
